# Patent US20100063049A1, “2-CARBOCYCLOAMINO-4-IMIDAZOLYLPYRIMIDINES AS AGENTS FOR THE INHBITION OF CELL PROLIFERATION” (priority 2006, published 2010)
# Target: T1, CDK2/Cyclin E (Homo sapiens, UniProt P24941)
# T1 construct: The open reading frames of CDK2 and Cyclin E were isolated by reverse transcriptase-PCR; made in house; host or cells: Spodoptera frugiperda SF21 insect cells (baculovirus co-infection); GST-Rb substrate made in E. coli BL21(DE3) pLysS
# Assay: in vitro kinase assay (Scintillation Proximity Assay), incorporation of [γ-33-P]-ATP into GST-Rb
# Assay type: biochemical
# Conditions: CDK2/Cyclin E partially-purified enzyme, GST-Rb substrate, 0.2 μM ATP, room temperature 60 mins; read-out: CDK2 inhibitory activity IC50
# Experimental: The compounds were tested in an in vitro kinase assay in 96 well format using Scintillation Proximity Assay (SPA—obtained from Amersham) for measuring incorporation of [γ-33-P]-Adenosine Triphosphate into a test substrate (GST-Retinoblastoma protein; GST-Rb). In each well was placed the compound to be tested (diluted in DMSO and water to correct concentrations) and in control wells either roscovitine as an inhibitor control or DMSO as a positive control. […]
# The plates were sealed with Topseal-S plate sealers, left for two hrs then spun at 2500 rpm, 1124×g., for 5 mins. The plates were read on a Topcount for 30 seconds per well. […]
# E. coli paste was resuspended in 10 ml/g of NETN buffer (50 mM Tris pH 7.5, 120 mM NaCl, 1 mM EDTA, 0.5% v/v NP-40, 1 mM PMSF, 1 ug/ml leupeptin, 1 ug/ml aprotinin and 1 ug/ml pepstatin) and sonicated for 2×45 seconds per 100 ml homogenate. […] The final product was analysed by Sodium Dodeca Sulfate (SDS) PAGE (Polyacrylamide gel) using 8-16% Tris-Glycine gels (Novex, San Diego, USA).
# The open reading frames of CDK2 and Cyclin E were isolated by reverse transcriptase-PCR using HeLa cell and activated T cell mRNA as a template and cloned into the insect expression vector pVL1393 (obtained from Invitrogen 1995 catalogue number: V1392-20). […]
compound,measurement,value
"Cc1ncc(-c2ccnc(N[C@H]3CC[C@H](N(C)C)CC3)n2)n1C(C)C [Example 4, trans-N′,N′-Dimethyl-N-[4-(2-methyl-3-propan-2-yl-imidazol-4-yl)pyrimidin-2-yl]cyclohexane-1,4-diamine]",IC50,159 nM
